Read-outs that look alike come from different tables or passages of the source.
How the values were obtained:
[1] = test system: THP1.1; assay: Payload cell potency and lethality CellTiter-Glo, THP1; format: cell-based; settings: for GI50: Homo sapiens
Method: Each concentration was tested in triplicate. […] Values represent time zero (TO).

[2] = test system: TAOK1 (neojunction transcript); assay: In vivo PD RT-qPCR in NCI-N87 tumors, TAOK1; set-up: species or system CB17-SCID mice; settings: 10 mg/kg IV single dose, NCI-N87 xenograft, versus vehicle
Method: (§1) Single cell suspension of 5 million cells per 0.1 mL (50% ATCC-modification-RPMI-1640-medium, Cat. No. A10491-01 (Thermo-Fisher Scientific); and 50% Corning Matrigel, Cat No. 356254 (VWR Scientific)) was injected subcutaneously on the right lateral flank with a syringe with a 25 Ga needle. Mice were randomized on day 0 at a mean tumor volume of 180-183 mm^3, n=8 per group for efficacy and n=4 per group for pharmacodynamics (PD). On day 1, test articles were administered (10 mg/kg) at a volume of 5 mL/kg intravenously every 7 days for 2 cycles for efficacy; a single course of treatment was used for PD assessment. Animals in the PD cohorts were euthanized at 24, 48, 72, and/or 96 hours post-dosing of a single dose, depending on the test article.
(§2) RNA was purified from tumor samples using MagMAX-96 for Microarrays kit and MagMAX Express-96 Deep Well Magnetic Particle Processor (ThermoFisher Scientific). Tumor samples (size 50-100 mg) were collected in RNAlater buffer and kept at −80° C. until RNA isolation. Tissue homogenization was performed by adding 2-3 ceramic beads and 1 mL of Tri-reagent into a tube containing tumors, followed by disruption on an Omni Bead Ruptor 24 instrument (Omni International). RNA isolation was done according to the manufacturer's instructions.
(§3) RNA lysates were isolated and reverse transcribed using TaqMan Fast Virus 1-Step Master Mixt (ThermoFisher Scientific) according to the manufacturer's instructions.
(§4) Quantitative PCR from cDNA was performed using TaqMan Gene Expression Master Mix (ThermoFisher Scientific) with transcript probes targeting FBXW5 or TAOK1 junctions duplexed with RPLP0 RNA VIC-PL (ThermoFisher Scientific) and quantified using the ΔΔCt method.
(§5) RT-qPCR of FBXW5 (mature mRNA transcript) and TAOK1 (neojunction transcript) were monitored. Test article or vehicle was given intravenously (IV) at 10 mg/kg. […] Tumors were isolated for RNA extraction and RT-qPCR. *p<0.05 versus vehicle using one-way ANOVA (FIG. 24A and FIG. 24B) or two-way ANOVA (FIG. 24C and FIG. 24D).

[3] = test system: FBXW5 (mature mRNA transcript); assay: In vivo PD RT-qPCR in NCI-N87 tumors, FBXW5; set-up: species or system CB17-SCID mice; settings: 10 mg/kg IV single dose, NCI-N87 xenograft, versus vehicle
Method: as §1, §2, §3, §4, §5

[4] = Caco-2 permeability of ADC payload; format: in vitro ADME; settings: human, payload; for efflux ratio at 2 h, 10 µM: Caco-2, B−A/A−B
Method: (§6) Integrity of cell monolayer was confirmed by TEER (transepithelial electrical resistance) and Lucifer yellow. Payloads were spiked in duplicate at 10 µM, separately, on both sides of the cell monolayer. Permeability rates from the apical to basolateral (A−B) direction and the basolateral to apical (B−A) direction were determined by sampling aliquots from both chambers immediately after treatment (t=0) and following incubation for 2 hours. Samples were protein precipitated with organic solvent containing internal standard and analyzed by LC-MS/MS (SCIEX; API 5500). The area ratio responses of payload/internal standard over time in both directions were used to generate permeability (cm/sec) values.

[5] = test system: N87 cells; assay: Cell viability CellTiter-Glo, N87; format: cell-based, human; settings: unconjugated payload of the ADC
Method: (§7) HCC1954 (American Type Culture Collection (ATCC)) breast ductal carcinoma cells were plated at 2000 cells/well in flat bottom 96-well tissue culture plates (Corning) in a total volume of 90 μL tissue culture medium supplemented with 10% fetal bovine serum (ThermoFisher Scientific). Cells were treated with a 3-fold serial dilution of compound from 200 nM to 0.03 nM. Each concentration was tested in triplicate. At the time of treatment, a plate of untreated cells was evaluated using CellTiter-Glo®2.0 Luminescent Cell Viability Assay according to the manufacturer's recommendations (Promega; #G9241). CellTiter-Glo® 2.0 reagent was added to the medium, incubated, and assayed on an EnVision Multilabel Reader (PerkinElmer). Values represent time zero (TO). […] Percentage growth inhibition was calculated as: [(T144−T0)/(C−T0)]×100 for concentrations for which T144>/=T0 or [(T144−T0)/T0]×100 for concentrations for which T144<T0. The dose response curve plots were generated using Prism 7 (Graphpad) and fit using nonlinear regression analysis and the log (inhibitor) versus response—variable slope (four parameters).
HCC1954 (ATCC), 2000 cells/well), N87 (ATCC, 4000 cells/well), SKBR3 (ATCC, 3000 cells/well), and MCF7 (ATCC, 1500 cells/well) cell lines were used. Cell viability analysis was performed as described in section 2.3.

[6] = test system: PC3 cells; assay: Cell viability, EPHA2-expressing PC3; format: cell-based; settings: free payload of the ADC
Method: as §7
Anti-CD138 ADCs were tested in the CD138-expressing MOLP8 multiple myeloma cell line. Similarly, anti-EPHA2 ADCs were tested in the EPHA2-expressing PC3 prostate cancer cell line.

[7] = test system: Caco-2 cells; assay: Caco-2 permeability of ADC payload; format: in vitro ADME; settings: for Perm. Mean Caco-2 B-A Perm: corresponding free payload
Method: as §6

[8] = test system: NCIH1650.1; assay: Payload cellular potency, CTGlo-ATS, 72 h, NCIH1650.1; format: cell-based; settings: corresponding free payload, cell line #1, 72 h
[9] = THP-1, read-out: Payload cell potency: CT..-ATS GMean GI50 (nM) THP1.1

COc1cc2cc(c1Cl)N(C)C(=O)C[C@H](OC(=O)[C@H](C)N(C)C(=O)CCS)[C@]1(C)O[C@H]1[C@H](C)[C@@H]1C[C@@](O)(NC(=O)O1)[C@H](OC)/C=C/C=C(\C)C2 [DM1, reference compound]
Payload cell lethality: CT..-ATS GMean LD50 (nM) THP1.1 ([1]; payload of the ADC): 3.287 nM

CC[C@H](O)[C@@H](C)[C@H]1O[C@@H]1C[C@@](C)(O)/C=C/C=C(\C)[C@H]1OC(=O)C[C@H](O)CC[C@@](C)(OC(C)=O)[C@@H](OC(=O)N2CCN(C(=O)OCc3ccc(NC(=O)[C@H](CCCNC(N)=O)NC(=O)[C@@H](NC(=O)CCCCCN4C(=O)C=CC4=O)C(C)C)cc3)CC2)/C=C/[C@@H]1C [ADL1-D4]
change in TAOK1 neojunction transcript in tumors [2]: significant increases in TAOK1 | change in FBXW5 mature mRNA transcript in tumors [3]: significant depletion of FBXW5

CC[C@H](O)[C@@H](C)[C@H]1O[C@@H]1C[C@@](C)(O)/C=C/C=C(\C)[C@H]1OC(=O)C[C@H](O)CC[C@@](C)(OC)[C@@H](OC(=O)N(C)CCNC)/C=C/[C@@H]1C [D20, (2S,3S,6S,7R,10R,E)-10-hydroxy-2-((R,2E,4E)-6-hydroxy-7-((2R,3R)-3-((2R,3S)-3-hydroxypentan-2-yl)oxiran-2-yl)-6-methylhepta-2,4-dien-2-yl)-7-methoxy-3,7-dimethyl-12-oxooxacyclododec-4-en-6-yl methyl(2-(methylamino)ethyl)carbamate]
efflux ratio at 2 h, 10 µM [4]: 2.38

CC[C@H](O)[C@@H](C)[C@H]1O[C@@H]1C[C@@](C)(O)/C=C/C=C(\C)[C@H]1OC(=O)C[C@H](O)CC[C@@](C)(OC)[C@@H](OC(=O)N2CCN(CCCC(=O)O)CC2)/C=C/[C@@H]1C [D25]
Payload Rmin (%) [5]: 40.364%

CC[C@H](O)[C@@H](C)C1OC1C[C@@](C)(O)/C=C/C=C(\C)[C@H]1OC(=O)C[C@H](O)CC[C@@](C)(OC(C)=O)[C@@H](OC(=O)N2CCNCC2)/C=C/[C@@H]1C (stereo in doubt) [D4, (2S,3S,6S,7R,10R,E)-7-acetoxy-10-hydroxy-2-((R,2E,4E)-6-hydroxy-7-((2S,3S)-3-((2R,3S)-3-hydroxypentan-2-yl)oxiran-2-yl)-6-methylhepta-2,4-dien-2-yl)-3,7-dimethyl-12-oxooxacyclododec-4-en-6-yl piperazine-1-carboxylate]
Payload Rmin [6]: −55.97% | GI50 [1, 9]: 10.9 nM | Payload Rmin (%) [5]: −81.775% | Perm. Mean Caco-2 B-A Perm [7]: 1.79 10e−6 cm/s

CC[C@H](O)[C@@H](C)[C@H]1O[C@@H]1C[C@@](C)(O)/C=C/C=C(\C)[C@H]1OC(=O)C[C@H](O)CC[C@@](C)(OC)[C@@H](OC(=O)N2CCN(C)CC2)/C=C/[C@@H]1C [D2, (2S,3S,6S,7R,10R,E)-10-hydroxy-2-((R,2E,4E)-6-hydroxy-7-((2R,3R)-3-((2R,3S)-3-hydroxypentan-2-yl)oxiran-2-yl)-6-methylhepta-2,4-dien-2-yl)-7-methoxy-3,7-dimethyl-12-oxooxacyclododec-4-en-6-yl 4-methylpiperazine-1-carboxylate]
Payload Rmin [6]: −68.803% | GI50 [1, 9]: 2.02 nM | CTGlo-ATS Mean MinResponse % THP1.1 ([1]; payload of the ADC): −100.218% | payload cell potency as compared to D1 ([1]; see Table 14): three-fold increase | Payload Rmin (%) [5]: −72.706% | payload permeability as compared to D1 ([7]; see Table 14): three-fold increase

CC[C@H](O)[C@@H](C)[C@H]1O[C@@H]1C[C@@](C)(O)/C=C/C=C(\C)[C@H]1OC(=O)C[C@H](O)CC[C@@](C)(OC(=O)N2CCNCC2)[C@@H](OC(C)=O)/C=C/[C@@H]1C [D8, (2S,3S,6S,7R,10R,E)-6-acetoxy-10-hydroxy-2-((R,2E,4E)-6-hydroxy-7-((2R,3R)-3-((2R,3S)-3-hydroxypentan-2-yl)oxiran-2-yl)-6-methylhepta-2,4-dien-2-yl)-3,7-dimethyl-12-oxooxacyclododec-4-en-7-yl piperazine-1-carboxylate]
CTGlo-ATS GMean LD50 72 h NCIH1650.1 [8]: >10 µM | Payload Rmin [6]: −68.37% | Payload Rmin (%) [5]: −34.052% | Perm. Mean Caco-2 B-A Perm [7]: 2.027 10e−6 cm/s | Papp A→B at 2 h, 10 µM ([4]; Caco-2, apical to basolateral, 2 hours, read-out: Permeability Mean Caco-2 A-B Perm (10e−6 cm/s)): 0.138 ×10⁻⁶ cm/s

CC[C@H](O)[C@@H](C)[C@H]1O[C@@H]1C[C@@](C)(O)/C=C/C=C(\C)[C@H]1OC(=O)C[C@H](O)CC[C@@](C)(O)[C@@H](OC(=O)N2CCNCC2)/C=C/[C@@H]1C [D12]
CTGlo-ATS GMean LD50 72 h NCIH1650.1 [8]: >100 µM | Perm. Mean Caco-2 B-A Perm [7]: 0.23 10e−6 cm/s

CC[C@H](O)[C@@H](C)[C@H]1O[C@@H]1C[C@@](C)(O)/C=C/C=C(\C)[C@H]1OC(=O)C[C@H](O)CC[C@@](C)(OC)[C@@H](OC(=O)N2CCNCC2)/C=C/[C@@H]1C (stereo in doubt) [D1]
CTGlo-ATS GMean LD50 72 h NCIH1650.1 [8]: >10 µM | Payload Rmin [6]: −71.987% | CTGlo-ATS Mean MinResponse % THP1.1 ([1]; payload of the ADC): −100.815% | Payload Rmin (%) [5]: −40.041% | Perm. Mean Caco-2 B-A Perm [7]: 2.05 10e−6 cm/s

CC[C@H](O)[C@@H](C)[C@H]1O[C@@H]1C[C@@](C)(O)/C=C/C=C(\C)[C@H]1OC(=O)C[C@H](O)CC[C@@](C)(O)[C@@H](OC(=O)N2CCN(C3CCCCCC3)CC2)/C=C/[C@@H]1C [D11, E7107]
CTGlo-ATS Mean MinResponse % THP1.1 ([1]; payload of the ADC): −100.481%

CC[C@H](O)[C@@H](C)[C@H]1O[C@@H]1C[C@@](C)(O)/C=C/C=C(\C)[C@H]1OC(=O)C[C@H](O)CC[C@@](C)(OC)[C@@H](OC(=O)N2CCNC(CCC(=O)O)C2)/C=C/[C@@H]1C (stereo partly drawn) [D22, N-ethyl-N-isopropylpropan-3-(4-((((2S,3S,6S,7R,10R,E)-10-hydroxy-2-((R,2E,4E)-6-hydroxy-7-((2R,3R)-3-((2R,3S)-3-hydroxypentan-2-yl)oxiran-2-yl)-6-methylhepta-2,4-dien-2-yl)-7-methoxy-3,7-dimethyl-12-oxooxacyclododec-4-en-6-yl)oxy)carbonyl)piperazin-2-yl)propanoic acid]
CTGlo-ATS Mean MinResponse % THP1.1 ([1]; payload of the ADC): −78.119% | efflux ratio at 2 h, 10 µM [4]: 1.14

CC[C@H](O)[C@@H](C)[C@H]1O[C@@H]1C[C@H](C)/C=C/C=C(\C)[C@H]1OC(=O)C[C@H](O)CC[C@@](C)(OC)[C@@H](OC(=O)N2CCNCC2)/C=C/[C@@H]1C [D18, (2S,3S,6S,7R,10R,E)-10-hydroxy-2-((S,2E,4E)-7-((2R,3R)-3-((2R,3S)-3-hydroxypentan-2-yl)oxiran-2-yl)-6-methylhepta-2,4-dien-2-yl)-7-methoxy-3,7-dimethyl-12-oxooxacyclododec-4-en-6-yl piperazine-1-carboxylate]
Payload Rmin (%) [5]: −92.127% | efflux ratio at 2 h, 10 µM [4]: 23

C/C(=C\c1cc(F)cc(N2CCOCC2)c1)[C@H]1OC(=O)C[C@H](O)CC[C@H](C)[C@@H](OC(=O)N2CCN(C)CC2)/C=C/[C@@H]1C [D17]
GI50 ([1]; THP-1, payload of the ADC, read-out: Payload cell potency: CT..-ATS GMean GI50 (nM) THP1.1): 2.83 nM

CC(=O)N1CCC(n2nnc3c(F)cc(/C=C(\C)[C@H]4OC(=O)C[C@H](O)CC[C@H](C)[C@@H](OC(=O)N5CC[N+](C)(Cc6ccc(NC(=O)[C@H](C)NC(=O)[C@@H](NC(=O)CCCCCN7C(=O)C=CC7=O)C(C)C)cc6)CC5)/C=C/[C@@H]4C)cc32)CC1 [ADL5-D15, 4-((((2S,3S,6R,7S,10R,E)-2-((E)-1-(1-(1-acetylpiperidin-4-yl)-4-fluoro-1H-benzo[d][1,2,3]triazol-6-yl)prop-1-en-2-yl)-10-hydroxy-3,7-dimethyl-12-oxooxacyclododec-4-en-6-yl)oxy)carbonyl)-1-(4-((S)-2-((S)-2-(6-(2,5-dioxo-2,5-dihydro-1H-pyrrol-1-yl)hexanamido)-3-methylbutanamido)propanamido)benzyl)-1-methylpiperazin-1-ium]
change in TAOK1 neojunction transcript in tumors [2]: showed an increase in TAOK1, but did not reach statistical significance | change in FBXW5 mature mRNA transcript in tumors [3]: significant depletion of FBXW5

C/C(=C\c1cc(F)cc(N2CCN(CC(=O)O)CC2)c1)[C@H]1OC(=O)C[C@H](O)CC[C@H](C)[C@@H](OC(=O)N2CCNCC2)/C=C/[C@@H]1C [D33, 2-(4-(3-fluoro-5-((E)-2-((2S,3S,6R,7S,10R,E)-10-hydroxy-3,7-dimethyl-12-oxo-6-((piperazine-1-carbonyl)oxy)oxacyclododec-4-en-2-yl)prop-1-en-1-yl)phenyl)piperazin-1-yl) acetic acid]
efflux ratio at 2 h, 10 µM [4]: 4.08

CC[C@H](O)[C@@H](C)C1OC1C[C@@](C)(O)/C=C/C=C(\C)[C@H]1OC(=O)C[C@H](O)CC[C@@](C)(OC)[C@@H](OC(=O)N2CCN(CCN3C(=O)C=CC3=O)CC2)/C=C/[C@@H]1C (stereo in doubt) [ADL14-D1, (2S,3S,6S,7R,10R,E)-10-hydroxy-2-((R,2E,4E)-6-hydroxy-7-((2S,3S)-3-((2R,3S)-3-hydroxypentan-2-yl)oxiran-2-yl)-6-methylhepta-2,4-dien-2-yl)-7-methoxy-3,7-dimethyl-12-oxooxacyclododec-4-en-6-yl 4-(2-(2,5-dioxo-2,5-dihydro-1H-pyrrol-1-yl)ethyl)piperazine-1-carboxylate]
change in TAOK1 neojunction transcript in tumors [2]: did not exhibit statistically significant changes | change in FBXW5 mature mRNA transcript in tumors [3]: did not exhibit statistically significant changes

CC(=O)N1CCC(n2nnc3c(F)cc(/C=C(\C)[C@H]4OC(=O)C[C@H](O)CC[C@H](C)[C@@H](OC(=O)N5CCN(C)CC5)/C=C/[C@@H]4C)cc32)CC1 [D15]
Payload Rmin [6]: −79.835% | Papp B→A at 2 h, 10 µM ([4]; Caco-2, basolateral to apical, 2 hours, read-out: Permeability Mean Caco-2 B-A Perm (10e−6 cm/s)): 28.9 ×10⁻⁶ cm/s | efflux ratio at 2 h, 10 µM [4]: 7.84

Source: patent US20260158152A1, “SPLICING MODULATOR ANTIBODY-DRUG CONJUGATES AND METHODS OF USE” (EISAI R&D MANAGEMENT CO., LTD., priority 2018, published 2026)
